Assay results taken from patent publication US9061994B1, “Materials and methods useful to induce vacuolization, cell death, or a combination thereof” (The University of Toledo, priority 2011, dated 2015).

Tests used:
U251 glioblastoma cells [1] = assay: Classification by cellular phenotype induced in cultured cells; type: cell-based, human; conditions: FIG. 72
U251 glioblastoma cells [2] = assay: Cell morphology / vacuolization by phase-contrast microscopy; type: cell-based, human; conditions: concentration not singled out ([…] and 10 μM or as in figure)
U251 glioblastoma cells [3] = assay: Sulforhodamine B (SRB) growth inhibition assay; type: cell-based, human; conditions: U251; 48 h SRB; Table 1, Table 2 (FIG. 64), FIG. 63
Description: Cells experiencing methuosis initially undergo extreme cytoplasmic vacuolization which can be readily assessed by phase contrast microscopy. As viability is compromised (usually between 24-48 h), the cells detach from the culture surface and lose membrane integrity. […] Although methuosis can occur in a broad spectrum of human tumor cell lines, SAR studies were carried out with U251 glioblastoma cells. Therefore, this cell line was used in the present evaluation.
Total protein in adherent cells was measured by the sulforhodamine B (SRB) colorimetric assay, following standard procedures for anticancer drug screening used by the U.S. National Cancer Institute. […] On the day after plating, four wells were assayed to establish a pre-drug (time-0) baseline. Test compounds were diluted as described above and added to the remaining wells. The medium and compounds were replenished after 24 hr. SRB assays were performed at a 48 h endpoint as described, using a SpectraMax Plus 384 plate reader (Molecular Devices, Sunnyvale, Calif.) to determine absorbance at 515 nm.
Cells were seeded in 96-well plates as described in the methods. After 24 h, each compound was added at the indicated concentrations and SRB assays were performed after an additional 48 h. Each point represents the mean±SD of values from four wells. The dotted line on each graph indicates the average absorbance of four wells sampled at time-0 (i.e., the time that the compounds were added).
The human U251 glioblastoma cell line was obtained from the DCT Tumor Repository (National Cancer Institute, Fredrick, Md.). […] All test compounds were dissolved in DMSO and serially diluted in DMSO so that the desired final drug concentrations could be achieved by making a 1/1000 dilution into the culture medium. One day after plating, four wells were assayed to establish a pre-drug (time-0) baseline. At the same time, fresh medium containing test compounds was added to the remaining wells. Control wells received DMSO alone. SRB assays were performed at a 48 h endpoint. To minimize the impact of potential variations in stability among the compounds, medium with test compound was replenished after the first 24 h.

U251 glioblastoma cells [4] = assay: Cell cycle analysis by flow cytometry (DNA histograms); type: cell-based, human; conditions: 24 h, 3 μM (FIGS. 69A-69B)
[5] = Stability on storage in DMSO (1H NMR); type: physicochemical
Text: Derivatives substituted with hydroxyl-functionality were synthesized based upon the results obtained in previous SAR studies for 2-substituted indole. Subtle chemical modifications at this position can alter activity, and are sensitive to both steric and electronic properties. […] Previously prepared intermediate ethyl 5-methoxyindole-2-carboxylate (302) was reduced by LAH to 425, which was then protected by acetylating the primary hydroxyl group (426). The acetyl group was then hydrolyzed during the alkaline conditions used to quench the acidic reagents generated during Vilsmeier's step that produce aldehyde 427. […] Alcohol 425 was oxidized to 5-methoxyindole-2-carboxaldehyde (428) by MnO2 in EtOAc heated to reflux. The aldehyde was subjected toWittig conditions using phosphonium ylide (Ph3CHCO2C2H5) to produce the α,β-unsaturated ester 429, which was reduced to 2-hydroxypropylindole 430 using excess LAH. The primary hydroxyl group was protected as the O-acetate (431) under conditions of excess acetic anhydride, TEA and CH3CN. […] As anticipated, the O-acetyl group was hydrolyzed under these conditions.
5-Methoxy-2-hydroxymethylindole-3-carboxaldehyde 427 (75 mg, 0.37 mmol), 4-acetylpyridine (118 mg, […]), and piperidine (82.6 mg, […]) were dissolved in methanol (1 mL) and heated to reflux. The reaction mixture was stirred for 45 min during which the solution became bright orange. The flask was then removed from heat and allowed to stir for 1 h. A precipitate formed which was collected, washed with ice-cold MeOH (5 mL) and dried in a vacuum desiccator for 24 h to yield an orange solid (28 mg, 24%). mp 229-230° C. TLC Rf 0.65 (6% MeOH/DCM), 0.21 (80% EtOAc/hexanes). […] 13C NMR (150 MHz, d6-DMSO) δ 188.2, 155.2, 150.6, 148.0, 145.0, 139.3, 131.0, 126.7, 121.4, 113.8, 113.0, 111.6, 108.3, 103.4, 55.57, 55.32. Elemental analysis calculated for C18H16N2O3.0.033 MeOH: C, 70.00; H, 5.26; N, 9.05. Found: C, 69.61; H, 5.09; N, 8.90. […] When stored in its isolated precipitate form, this compound is stable.

U251 glioblastoma cells [6] = assay: Effect of filipin, bafilomycin A1 or EHT 1864 on MIPP-induced vacuoles; type: cell-based, human; conditions: 10 μM MIPP with 12 μg/ml filipin, 0.1 μM bafilomycin A1 or 25 μM EHT 1864
Description: To inhibit clathrin-independent endocytosis, U251 cells were washed twice with serum-free DMEM, then pretreated for 30 min with DMEM+0.5% BSA in the presence or absence of 12 μg/ml filipin. Following the pretreatment, MIPP was added to the dishes at a final concentration of 10 μM and phase-contrast images were acquired 100 min later. To inhibit the vacuolar-type H^+ ATPase, U251 cells were pretreated for 1 h with 0.1 μM bafilomycin A1 or an equivalent volume of DMSO. At the end of the hour, 10 μM MIPP, or an equivalent volume of DMSO, was added without a medium change. Phase-contrast images of the cells were acquired 1 h after the addition of MIPP. […] The percentage of vacuolated cells in the population was determined by scoring at least 100 cells in multiple phase-contrast photomicrographs for each condition. Cells containing three or more phase-lucent vacuoles with diameters ≧0.5 μm or >10 smaller vacuoles (0.1-0.5 μm) were scored as positive. For comparison, the effect of EHT 1864 on Ras-induced vacuolization was also determined. […] After 24 h, phase-contrast images were taken and the number of vacuolated cells was scored as described above.

porcine tubulin = biological target: T1, porcine tubulin (Sus scrofa, UniProt P02550+P02554); assay: Cell-free fluorescence-based tubulin polymerization assay; type: biochemical; conditions: final concentration 3 μM (FIG. 61)
T1 construct: purchased Cytoskeleton, Inc. BK011P
T1 sequence (P02550 whole entry): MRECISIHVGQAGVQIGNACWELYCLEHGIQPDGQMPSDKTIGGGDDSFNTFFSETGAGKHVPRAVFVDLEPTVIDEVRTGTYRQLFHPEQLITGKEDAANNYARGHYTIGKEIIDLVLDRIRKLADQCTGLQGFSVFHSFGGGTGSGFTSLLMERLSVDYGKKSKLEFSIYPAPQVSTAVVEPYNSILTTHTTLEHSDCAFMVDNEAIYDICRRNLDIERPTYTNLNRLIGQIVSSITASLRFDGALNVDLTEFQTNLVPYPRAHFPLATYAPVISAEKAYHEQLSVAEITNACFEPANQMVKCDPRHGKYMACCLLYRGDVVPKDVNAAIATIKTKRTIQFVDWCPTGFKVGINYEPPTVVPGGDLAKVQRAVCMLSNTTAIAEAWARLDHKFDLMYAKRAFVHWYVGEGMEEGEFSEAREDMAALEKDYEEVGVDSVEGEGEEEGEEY
T1 sequence (P02554 whole entry): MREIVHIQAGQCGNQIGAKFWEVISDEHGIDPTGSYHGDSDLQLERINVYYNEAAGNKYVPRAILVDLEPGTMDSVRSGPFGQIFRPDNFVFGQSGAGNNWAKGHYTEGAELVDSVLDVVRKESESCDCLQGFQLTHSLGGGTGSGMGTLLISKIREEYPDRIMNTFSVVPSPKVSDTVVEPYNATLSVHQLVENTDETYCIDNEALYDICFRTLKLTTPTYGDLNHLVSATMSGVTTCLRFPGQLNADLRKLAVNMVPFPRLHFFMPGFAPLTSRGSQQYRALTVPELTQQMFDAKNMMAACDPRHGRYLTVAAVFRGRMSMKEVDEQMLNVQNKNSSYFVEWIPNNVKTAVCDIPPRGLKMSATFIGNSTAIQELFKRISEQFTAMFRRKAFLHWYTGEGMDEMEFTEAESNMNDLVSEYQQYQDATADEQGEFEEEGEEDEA

[7] = Stability during workup, manipulation or storage; type: physicochemical; conditions: among ester series 120, 125, 310, 309
Description: Expanding previous SAR studies of 2-indolyl alkyl substitutions, additional functionalized probes were prepared as depicted in Schemes 4-7. […] Excellent regioselectivity was achieved by the di-lithio species derived from 418 and sec-butyllithium in THF at −40° C. Cyclization and deprotection occurred in a one-pot fashion with excess TFA affording 5-methoxy-2-trifluoromethylindole (203). Synthesis of aldehyde 204 and condensation to the final trifluoromethyl target 124 were accomplished by standard methods. Alkyl carboxylates (301-304) were synthesized from commercially available acid 300 by Fisher esterification conditions using their corresponding alcohols (Scheme 4E, FIG. 78). Formylation reactions to yield aldehydes 305-308, followed by Claisen-Schmidt condensation to provide 120, 125, 310, 309, were conducted as previously described. […] Without wishing to be bound by theory, it is believed this is owing to its better leaving group among this series.

Molecule: 3-(2-hydroxypropyl-5-methoxy-indole-3-yl)-1-(4-pyridinyl)-2-propen-1-one [402q]
- class of cellular phenotype (U251 glioblastoma cells [1]): Class 2
- cell morphology / vacuolization (U251 glioblastoma cells [2]): extensive accumulation of large cytoplasmic vacuoles, with loss of viable adherent cells at concentrations >2.5 μM
- growth inhibitory (GI) activity, in words (U251 glioblastoma cells [3]): GI values in the low micromolar range

Molecule: COc1ccc2[nH]c(C(=O)[O-])c(/C=C/C(=O)c3ccncc3)c2c1.[Na+] [402o, sodium trans-3-(5-methoxyindol-2-carboxylate-3-yl)-1-(4-pyridinyl)-2-propen-1-one]
- cell cycle distribution (G2/M, sub-G1/G0) (U251 glioblastoma cells [4]): no detectable effect on cell cycle distribution
- growth inhibitory (GI) activity, in words (U251 glioblastoma cells [3]): either markedly attenuated or completely eliminated

Molecule: COc1ccc2[nH]c(CO)c(C=CC(=O)c3ccncc3)c2c1 [402p, 3-(2-hydroxymethyl-5-methoxy-1H-indole-3-yl)-1-(4-pyridinyl)-2-propen-1-one]
- stability in DMSO, in words ([5]; storage in DMSO): unstable when stored at rt in DMSO for 48 h
- degraded ([5]; stored in d6-DMSO, after 48 h, 1H NMR): ~50%
- stability as isolated precipitate ([5]; stored in its isolated precipitate form): stable

Molecule: CO/C1=C\C(C)=C\[C@@H](C)[C@@H](O)[C@@H](C)C/C(C)=C/C=C/[C@H](OC)[C@@H]([C@@H](C)[C@@H](O)[C@H](C)[C@@]2(O)C[C@@H](O)[C@H](C)[C@@H](C(C)C)O2)OC1=O [Baf-A, bafilomycin A1]
- effect on induction of vacuoles by MIPP (U251 glioblastoma cells [6]): completely abrogated the ability of the cells to generate vacuoles when they were exposed to MIPP

Molecule: O=c1cc(CN2CCOCC2)occ1OCCCCCSc1ccnc2cc(C(F)(F)F)ccc12 [EHT 1864]
- effect on induction of vacuoles by MIPP (U251 glioblastoma cells [6]): no detectable effect on vacuole formation

Molecule: COc1ccc2[nH]c(C)c(/C=C/C(=O)c3ccncc3)c2c1 [MOMIPP, trans-3-(5-methoxy-2-methyl-1H-indol-3-yl)-1-(4-pyridinyl)-2-propen-1-one]
- inhibition of tubulin polymerization (porcine tubulin): superimposable with the DMSO control

Molecule: CN[C@H]1CCc2cc(OC)c(OC)c(OC)c2-c2ccc(OC)c(=O)cc21 [colcemid, reference compound]
- cell cycle distribution (G2/M, sub-G1/G0) (U251 glioblastoma cells [4]): significantly decreased compared to the DMSO control (p≦0.05)

Molecule: COc1ccc2[nH]c(C(F)(F)F)c(/C=C/C(=O)c3ccncc3)c2c1 [compound 124, trans-3-(5-methoxyindol-2-trifluoromethyl-3-yl)-1-(4-pyridinyl)-2-propen-1-one]
- inhibition of tubulin polymerization (porcine tubulin): partially inhibited tubulin polymerization

Molecule: CCOC(=O)c1[nH]c2ccc(OC)cc2c1/C=C/C(=O)c1ccncc1 [compound 125, ethyl trans-3-(5-methoxyindol-2-carboxylate-3-yl)-1-(4-pyridinyl)-2-propen-1-one]
- inhibition of tubulin polymerization (porcine tubulin): partially inhibited tubulin polymerization

Molecule: COc1ccc2[nH]c(C(=O)OC(C)C)c(/C=C/C(=O)c3ccncc3)c2c1 [compound 309, isopropyl trans-3-(5-methoxyindol-2-carboxylate-3-yl)-1-(4-pyridinyl)-2-propen-1-one]
- sensitivity to hydrolysis [7]: most sensitive to hydrolysis during workup and subsequent manipulation or storage

Molecule: CCCCC[C@@H](O)[C@H]1C(=O)O[C@H](C)[C@@H](O)/C=C/C=C/C=C/C=C/C=C(\C)[C@@H](O)C[C@H](O)C[C@H](O)C[C@H](O)C[C@H](O)C[C@H](O)C[C@@H]1O [filipin]
- effect on induction of vacuoles by MIPP (U251 glioblastoma cells [6]): failed to show the typical morphological response to MIPP
